We go through 18 compounds from patent publication US6833372B2, “Non-peptide GnRH agents, Pharmaceutical compositions, and methods for their use” (Pfizer, Inc., priority 2002, dated 2004).

Usually Ki stands for a measure of affinity in units of concentration, obtained from inhibition or displacement. A lower Ki goes with higher affinity.

The target in the test is T1, human GnRH receptors (Homo sapiens, UniProt P30968).
T1 construct: expressed in transfected cells; host or cells: HEK 293 cells, stably transfected; membranes
T1 sequence (P30968 1-328): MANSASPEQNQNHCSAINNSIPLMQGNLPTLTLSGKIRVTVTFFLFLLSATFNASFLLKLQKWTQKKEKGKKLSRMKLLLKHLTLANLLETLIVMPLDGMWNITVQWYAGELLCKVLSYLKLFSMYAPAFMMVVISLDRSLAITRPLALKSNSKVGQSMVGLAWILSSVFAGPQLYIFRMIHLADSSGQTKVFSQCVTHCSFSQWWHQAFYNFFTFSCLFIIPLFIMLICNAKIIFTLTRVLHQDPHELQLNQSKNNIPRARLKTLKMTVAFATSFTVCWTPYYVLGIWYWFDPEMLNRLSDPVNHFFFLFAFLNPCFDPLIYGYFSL
Kind of test: Radioligand binding: inhibition of 125I-GnRH-A binding to human GnRH receptor membranes. The conditions noted are these: HEK 293 cell membranes. On the procedure:
HEK 293 cells stably transfected with mouse or human GnRH receptors as described above were grown in Dulbecco's high-glucose, modified Eagle's medium (DMEM) supplemented with 0.2% G418, 10% fetal bovine serum (FBS) and 100 U/mL penicillin/streptomycin. GH3 cells stably transfected with the rat GnRH receptor (GGH3) were provided by Dr. William Chin (Harvard Medical School, Boston, Mass.). These cells have been extensively characterized previously (Kaiser et al., 1997). The cells were grown in low glucose DMEM containing: 100U/mL penicillin/streptomycin, 0.6% G418 and 10% heat-inactivated FBS.
HEK 293 cells containing mouse or human receptors, or rat pituitaries (Pel Freez Biologicals, Rogers, Ark.) were homogenized in buffer A containing: 50 mM Tris (pH 7.4), 0.32 M sucrose, 2 mM EGTA, 1 mM PMSF, 5 μg/ml aprotinen, 5 μg/ml Pepstatin A, and 1 μg/ml leupeptin. Homogenized cells were centrifuged at 4° C. at 20,000×g for 25 minutes, re-suspended in buffer A and re-centrifuged at 4° C. at 20,000×g for an additional 25 minutes. Total membrane protein was determined with a BCA kit (Pierce, Rockford, Ill.). Membranes were stored at −70° C. at a final membrane protein concentration of approximately 5 mg/ml.
The radioiodinated agonist analog of GnRH, [des-Gly^10,D-Ala^6]GnRH ethylamide (^125I-GnRH-A), was used as the radioligand. […] The reaction mixture was vortexed and incubated for 1 minute at room temperature. After one minute, the mixture was vortexed and allowed to incubate for an additional minute. 2 ml of 0.5 M acetic acid/1% BSA was added to the reaction tube and the mixture was added to a C18 Sep-Pak cartridge. The cartridge was washed with subsequent washes of 5 ml H2O and 5 ml 0.5 M acetic acid and then eluted with 5×1 ml of 60% CH3CN/40% 0.5 M acetic acid. The eluate was diluted with 3× volume of HPLC buffer A (0.1% TFA in H2O) and loaded onto a C18 column. The iodinated product was eluted over 20-25 min with a gradient of 25-100% CH3CN containing 0.1% TFA. The radioactive fractions (750 μl/fraction) were collected into clean polypropylene tubes containing 100 μl of 10% BSA. Fractions were assessed for biological activity by radioligand binding. Specific activity of the radioligand was approximately 2200 Ci/mmol.
Membranes were diluted to 0.01-0.5 mg/ml (depending upon the species of receptor) with assay buffer containing 50 mM HEPES (pH 7.4), 1 mM EDTA, 2.5 mM MgCl2, and 0.1% BSA. Membranes (diluted to utilize similar receptor numbers between assays) were incubated with approximately 0.04-0.06 nM ^125I-GnRH-A in the presence or absence of competing agents (0.1-10,000 nM) in a total volume of 200 μl in 96-well polypropylene plates for 1 hour at room temperature. Assays were stopped by rapid filtration onto 96-well GF/C filters soaked in 0.1% polyethylenimine (PEI) utilizing a Packard 96-well cell harvester. Filters were washed three times with ice-cold PBS (50 mM NaPO4, 0.9% NaCl, 2 mM MgCl2, and 0.02% NaN3, pH 7.4). 35 μl of scintillation cocktail was added to each filter well and filters were counted on a Packard Topcount. Control dose-response curves were generated to GnRH (0.1 nM-100 nM) in each competition binding experiment. Ki values were calculated from IC50 values according to Cheng et al., Biochemical Pharmacol. 22: 3099-3108, 1973. [formula]
For the compound `COc1nc(N2CCC[C@H]2C(=O)OC(C)(C)C)nc(OC)c1NC(=O)c1ccc(Cc2cc3c(cc2C)C(C)(C)OC3(C)C)o1` [Example D24, tert-Butyl 1-[4,6-dimethoxy-5-({5-[(1,1,3,3,6-pentamethyl-1,3-dihydro-2-benzofuran-5-yl)methyl]-2-furoyl}amino)pyrimidin-2-yl]prolinate], the affinity corresponds to a Ki of 360 nM. In the case of `C=C(C)CN(Cc1ccco1)c1nc(OC)c(NC(=O)c2ccc(Cc3cc4c(cc3C)C(C)(C)OC4(C)C)o2)c(OC)n1` [Example D25, N-{2-[(2-Furylmethyl)(2-methylprop-2-enyl)amino]-4,6-dimethoxypyrimidin-5-yl}-5-[(1,1,3,3,6-pentamethyl-1,3-dihydro-2-benzofuran-5-yl)methyl]-2-furamide] it was 460 nM; in that of `COc1nc(N2CCN(CCC#N)CC2)nc(OC)c1NC(=O)c1ccc(Cc2cc3c(cc2C)C(C)(C)OC3(C)C)o1` [Example D26, N-{2-[4-(2-cyanoethyl)piperazin-1-yl]-4,6-dimethoxy-pyrimidin-5-yl}-5-[(1,1,3,3,6-pentamethyl-1,3-dihydro-2-benzofuran-5-yl)methyl]-2-furamide], 84 nM. In the case of `COc1nc(N(C)CC(=O)O)nc(OC)c1NC(=O)c1ccc(Cc2cc3c(cc2C)C(C)(C)OC3(C)C)o1` [Example D27, N-[4,6-Dimethoxy-5-({5-[(1,1,3,3,6-pentamethyl-1,3-dihydro-2-benzofuran-5-yl)methyl]-2-furoyl}amino)pyrimidin-2-yl]-N-methylglycine] it was 250 nM; in that of `COc1nc(NCc2ccccc2Br)nc(OC)c1NC(=O)c1ccc(Cc2cc3c(cc2C)C(C)(C)OC3(C)C)o1` [Example D28, N-{2-[(2-Bromobenzyl)amino]-4,6-dimethoxypyrimidin-5-yl}-5-[(1,1,3,3,6-pentamethyl-1,3-dihydro-2-benzofuran-5-yl)methyl]-2-furamide], 30 nM; in that of `COc1nc(N(C)Cc2cccc(C)n2)nc(OC)c1NC(=O)c1ccc(Cc2cc3c(cc2C)C(C)(C)OC3(C)C)o1` [Example D29, N-(4,6-Dimethoxy-2-{methyl[(6-methylpyridin-2-yl)methyl]amino}pyrimidin-5-yl)-5-[(1,1,3,3,6-pentamethyl-1,3-dihydro-2-benzofuran-5-yl)methyl]-2-furamide], 54 nM. Next, `COc1nc(N2CCN(CC(=O)N(C)C)CC2)nc(OC)c1NC(=O)c1ccc(Cc2cc3c(cc2C)C(C)(C)OC3(C)C)o1` [Example D30, N-(2-{4-[2-(Dimethylamino)-2-oxoethyl]piperazin-1-yl}4,6-dimethoxypyrimidin-5-yl)-5-[(1,1,3,3,6-pentamethyl-1,3-dihydro-2-benzofuran-5-yl)methyl]-2-furamide]: 46 nM. As for `COc1nc(NC2CCCCC2C2CCCCC2)nc(OC)c1NC(=O)c1ccc(Cc2cc3c(cc2C)C(C)(C)OC3(C)C)o1` (stereo not drawn) [Example D31, N-{2-[1,1′-Bi(cyclohexyl)-2-ylamino]4,6-dimethoxy-pyrimidin-5-yl}-5-[(1,1,3,3,6-pentamethyl-1,3-dihydro-2-benzofuran-2-benofuran-5-yl)methyl]-2-furamide], the inhibition constant (Ki) was determined as 6700 nM. This Ki is about 150-fold higher than that of the compound before. In the case of `COc1nc(N[C@@H]2CCC[C@H]2OCc2ccccc2)nc(OC)c1NC(=O)c1ccc(Cc2cc3c(cc2C)C(C)(C)OC3(C)C)o1` [Example D32, N-(2-{[(1R,2R)-2-(Benzyloxy)cyclopentyl]amino}-4,6-dimethoxypyrimidin-5-yl)-5-[(1,1,3,3,6-pentamethyl-1,3-dihydro-2-benzofuran-5-yl)methyl]-2-furamide] it was 22 nM; in that of `COc1nc(NC2CCN(Cc3ccccc3)CC2)nc(OC)c1NC(=O)c1ccc(Cc2cc3c(cc2C)C(C)(C)OC3(C)C)o1` [Example D33, N-{2-[(1-Benzylpiperidin-4-yl)amino]-4,6-dimethoxypyrimidin-5-yl}-5-[(1,1,3,3,6-pentamethyl-1,3-dihydro-2-benzofuran-5-yl)methyl]-2-furamide], 46 nM; in that of `COc1cc(CNc2nc(OC)c(NC(=O)c3ccc(Cc4cc5c(cc4C)C(C)(C)OC5(C)C)o3)c(OC)n2)cc(OC)c1OC` [Example D34, N-{4,6-Dimethoxy-2-[(3,4,5-trimethoxybenzyl)amino]-pyrimidin-5-yl}-5-[(1,1,3,3,6-pentamethyl-1,3-dihydro-2-benzofuran-5-yl)methyl]-2-furamide], 14 nM. In the case of `COc1nc(NCCNC2C3CC4CC(C3)CC2C4)nc(OC)c1NC(=O)c1ccc(Cc2cc3c(cc2C)C(C)(C)OC3(C)C)o1` (stereo not drawn) [Example D35, N-(2-{[2-(2-Adamantylamino)ethyl]amino}-4,6-dimethoxypyrimidin-5-yl)-5-[(1,1,3,3,6-pentamethyl-1,3-dihydro-2-benzofuran-5-yl)methyl]-2-furamide] it was 2.6 nM; in that of `COc1nc(NCc2ccc(C(F)(F)F)nc2)nc(OC)c1NC(=O)c1ccc(Cc2cc3c(cc2C)C(C)(C)OC3(C)C)o1` [Example D36, N-[4,6-Dimethoxy-2-({[6-(trifluoromethyl)pyridin-3-yl]-methyl}amino)pyrimidin-5-yl]-5-[(1,1,3,3,6-pentamethyl-1,3-dihydro-2-benzofuran-5-yl)methyl]-2-furamide], 87 nM; in that of `CCCCN(CCC#N)c1nc(OC)c(NC(=O)c2ccc(Cc3cc4c(cc3C)C(C)(C)OC4(C)C)o2)c(OC)n1` [Example D37, N-{2-[Butyl(2-cyanoethyl)amino]-4,6-dimethoxypyrimidin-5-yl}-5-[(1,1,3,3,6-pentamethyl-1,3-dihydro-2-benzofuran-5-yl)methyl]-2-furamide], 41 nM. In the case of `COc1nc(N2CCN(c3ccccc3F)CC2)nc(OC)c1NC(=O)c1ccc(Cc2cc3c(cc2C)C(C)(C)OC3(C)C)o1` [Example D43, N-{2-[4-(2-Fluorophenyl)piperazin-1-yl]-4,6-dimethoxypyrimidin-5-yl}-5-[(1,1,3,3,6-pentamethyl-1,3-dihydro-2-benzofuran-5-yl)methyl]-2-furamide] it was 160 nM; in that of `COc1nc(N(Cc2ccccn2)Cc2ccccn2)nc(OC)c1NC(=O)c1ccc(Cc2cc3c(cc2C)C(C)(C)OC3(C)C)o1` [Example D45, N-{2-[Bis(pyridin-2-ylmethyl)amino]-4,6-dimethoxy-pyrimidin-5-yl}-5-[(1,1,3,3,6-pentamethyl-1,3-dihydro-2-benzofuran-5-yl)methyl]-2-furamide], 200 nM. As for `COc1nc(N2CCN(CCN3CCOCC3)CC2)nc(OC)c1NC(=O)c1ccc(Cc2cc3c(cc2C)C(C)(C)OC3(C)C)o1` [Example D46, N-{4,6-Dimethoxy-2-(4-(2-morpholin-4-ylethyl)piperazin-1-yl]pyrimidin-5-yl}-5-[(1,1,3,3,6-pentamethyl-1,3-dihydro-2-benzofuran-5-yl)methyl]-2-furamide], affinity was put at a Ki of 19 nM.

As to `COc1nc(N(CCN(C)C)Cc2ccc(F)cc2)nc(OC)c1NC(=O)c1ccc(Cc2cc3c(cc2C)C(C)(C)OC3(C)C)o1` [Example D47, N-{2-[[2-(Dimethylamino)ethyl](4-fluorobenzyl)amino]-4,6-dimethoxypyrimidin-5-yl}-5-[(1,1,3,3,6-pentamethyl-1,3-dihydro-2-benzofuran-5-yl)methyl]-2-furamide], the affinity corresponds to a Ki of 79 nM.
